Experimental data reported in patent US12084444B2, “Spiro-lactam NMDA modulators and methods of using same” (Tenacia Biotechnology (Hong Kong) Co., Limited, priority 2016, dated 2024).

Key:
Sprague Dawley rats = test: Bennett model of mechanical analgesia (sciatic nerve chronic constriction injury); format: in vivo
Procedure: The Bennett model of mechanical analgesia is used to assess the analgesic effects of compounds as measured by paw withdrawal threshold. Bennett G J, Xie Y K, “A peripheral mononeuropathy in rat that produces disorders of pain sensation like those seen in man,” Pain 33:87-107, 1988. […] Vehicle animals receive the surgery and then receive vehicle rather than test compound. Animals were tested 1 hr, 24 h and 1 wk post-test compound or vehicle administration.
Male 2-3 month old Sprague Dawley rats were used. Harlan was the supplier for all studies. Rats were housed in Lucite cages with aspen wood chip bedding, maintained on a 12:12 light:dark cycle (lights on at 5 AM), and given ad libitum access to Purina lab chow (USA) and tap water throughout the study.
Rats were anesthetized using inhaled isoflurane (2.5%). Sciatic nerve chronic constriction nerve injury surgery was performed as previously described (Bennett and Xie, 1988). An incision (˜1.5 cm in length) was made with a scalpel blade dorsally through skin on the right hind limb, parallel and posterior to femur. Using a small pointed hemostat, the biceps femoris and gluteus superficialis muscles were separated. Using curved blunt forceps, the common sciatic nerve was isolated and exposed. For the mechanical analgesia studies, the whole sciatic nerve was ligated. Using hemostats/forceps and chromic gut (5-0), the nerve was loosely ligated with a square knot; 3 ligatures, 1 mm apart were placed on the nerve. […] Testing occurred approximately 2 weeks post-surgery.
During testing, rats were acclimated to the surface of a suspended wire mesh grid (1 cm×1 cm, with the wire being 0.3 cm in diameter) for 15-20 min. Starting from the smallest, each Von Frey filament was pressed perpendicularly to the plantar surface of the affected (ipsilateral) hind paw until slightly bent and then held for 6 second. If an obvious hind paw withdrawal or a flinching behavior immediately after the withdrawal of the filament was not observed, the next larger filament was used in the same manner. In case of a response, a lower filament was used. This was repeated until six responses were collected.
For all studies, animals were baselined prior to study start to test for allodynia (defined as a paw withdrawal threshold under 5). A subset of animals was tested with gabapentin (150 mg/kg, PO) to ensure at least 50% analgesia. Once it was confirmed animals were ready for study initiation, animals were balanced across groups. All study investigators were blind to treatment conditions. Animals were dosed with 0.1, 1, 10, or 30 mg/kg of test compound via oral gavage (PO), control sets of animals were dosed with gabapentin (150 mg/kg, PO) or vehicle (0.5% Na-CMC in 0.9% sterile saline, PO). Testing occurred 1 h post-dosing with animals retested 24 hrs and 1 week post-dosing. The percent analgesia calculations for each animal were made using the following equation: % analgesia=[(log(x)−y)/((log (z)−y)]*100, where x=the paw withdrawal threshold for the drug-treated animal in grams, y=the average of the log(x) values for the vehicle treated group, and z=the paw withdrawal threshold for naïve animals in grams (historical value of 15 used). The results for Compound AA-2, where the percentage of analgesia is measured at 1 hour, 24 hours, and 1 week after compound administration are as follows: for 0.1 mg/kg dose: 22.3% at 1 h, 1.6% at 24 h, and 2.3% at 1 wk; for 1 mg/kg dose: 19.2% at 1 h, 10.7% at 24 h, and 11.0% at 1 wk; for 10 mg/kg dose: 38.1% at 1 h, 24.3% at 24 h, and 41.4% at 1 wk; and for 30 mg/kg dose: 24.4% at 1 h, 8.7% at 24 h, and 34.5% at 1 wk.

[1] = target: T1, NMDAR2B expressing HEK cell membranes (Homo sapiens, UniProt Q05586+Q13224); test: NMDAR agonist assay, [3H]MK-801 binding, NMDAR2B; format: biochemical; details: 50 μM glutamate
T1 construct: expressed in transfected cells; host or cells: HEK cells (membrane extract)
T1 sequence (Q13224 27-1484, other chains not shown): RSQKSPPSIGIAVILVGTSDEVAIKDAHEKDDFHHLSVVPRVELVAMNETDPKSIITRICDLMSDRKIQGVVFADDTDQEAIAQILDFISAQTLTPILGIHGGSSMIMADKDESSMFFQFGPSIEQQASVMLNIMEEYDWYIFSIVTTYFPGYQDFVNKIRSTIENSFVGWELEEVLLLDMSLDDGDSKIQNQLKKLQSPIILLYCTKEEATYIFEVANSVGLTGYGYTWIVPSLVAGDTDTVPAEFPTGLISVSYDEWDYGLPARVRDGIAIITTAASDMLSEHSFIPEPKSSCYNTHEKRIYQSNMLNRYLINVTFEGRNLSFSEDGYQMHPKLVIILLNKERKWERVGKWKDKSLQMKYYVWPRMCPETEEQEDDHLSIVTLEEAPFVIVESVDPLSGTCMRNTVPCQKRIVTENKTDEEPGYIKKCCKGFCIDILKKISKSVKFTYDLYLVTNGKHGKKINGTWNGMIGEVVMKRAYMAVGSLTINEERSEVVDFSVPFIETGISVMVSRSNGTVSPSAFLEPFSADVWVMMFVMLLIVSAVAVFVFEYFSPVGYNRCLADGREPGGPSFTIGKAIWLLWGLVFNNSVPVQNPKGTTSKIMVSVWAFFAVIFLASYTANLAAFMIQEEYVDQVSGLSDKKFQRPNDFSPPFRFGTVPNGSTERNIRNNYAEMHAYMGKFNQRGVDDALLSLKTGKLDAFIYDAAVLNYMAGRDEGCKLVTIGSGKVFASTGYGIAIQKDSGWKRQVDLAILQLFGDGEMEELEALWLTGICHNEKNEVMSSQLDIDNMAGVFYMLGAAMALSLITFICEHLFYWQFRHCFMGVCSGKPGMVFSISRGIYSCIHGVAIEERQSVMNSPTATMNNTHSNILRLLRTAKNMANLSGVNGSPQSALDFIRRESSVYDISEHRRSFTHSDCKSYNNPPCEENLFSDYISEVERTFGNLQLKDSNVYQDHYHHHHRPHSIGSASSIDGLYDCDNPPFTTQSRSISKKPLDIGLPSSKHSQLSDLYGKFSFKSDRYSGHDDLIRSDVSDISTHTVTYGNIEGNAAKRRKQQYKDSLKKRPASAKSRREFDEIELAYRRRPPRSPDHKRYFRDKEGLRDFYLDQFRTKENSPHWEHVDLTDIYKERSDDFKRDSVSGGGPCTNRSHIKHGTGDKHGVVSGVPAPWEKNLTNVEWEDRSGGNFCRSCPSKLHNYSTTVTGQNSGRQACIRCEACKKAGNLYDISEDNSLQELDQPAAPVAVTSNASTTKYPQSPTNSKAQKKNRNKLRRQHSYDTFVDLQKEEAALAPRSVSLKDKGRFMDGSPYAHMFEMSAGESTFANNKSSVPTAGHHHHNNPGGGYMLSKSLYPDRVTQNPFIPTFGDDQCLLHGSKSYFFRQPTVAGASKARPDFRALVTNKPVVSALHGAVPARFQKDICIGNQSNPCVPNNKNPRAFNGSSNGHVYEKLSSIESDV
Method in brief: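 HEK membranes (300 μg protein) expressing each subtype were preincubated 15 min at 25 °C with 50 μM glutamate and compound (1×10^−15–1×10^−7 M) or 1 mM glycine. [3H]MK-801 (0.3 μCi) binding then ran 15 min under nonequilibrium conditions, followed by filtration. EC50 and % maximal binding against 1 mM glycine came from three-parameter fits of baseline-subtracted DPM (N=2).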

[2] = target: T2, NMDAR2C expressing HEK cell membranes (Homo sapiens, UniProt Q14957); test: NMDAR agonist assay, [3H]MK-801 binding, NMDAR2C; format: biochemical; details: 50 μM glutamate
T2 construct: expressed in transfected cells; host or cells: HEK cells (membrane extract)
T2 sequence (Q14957 20-1233, other chains not shown): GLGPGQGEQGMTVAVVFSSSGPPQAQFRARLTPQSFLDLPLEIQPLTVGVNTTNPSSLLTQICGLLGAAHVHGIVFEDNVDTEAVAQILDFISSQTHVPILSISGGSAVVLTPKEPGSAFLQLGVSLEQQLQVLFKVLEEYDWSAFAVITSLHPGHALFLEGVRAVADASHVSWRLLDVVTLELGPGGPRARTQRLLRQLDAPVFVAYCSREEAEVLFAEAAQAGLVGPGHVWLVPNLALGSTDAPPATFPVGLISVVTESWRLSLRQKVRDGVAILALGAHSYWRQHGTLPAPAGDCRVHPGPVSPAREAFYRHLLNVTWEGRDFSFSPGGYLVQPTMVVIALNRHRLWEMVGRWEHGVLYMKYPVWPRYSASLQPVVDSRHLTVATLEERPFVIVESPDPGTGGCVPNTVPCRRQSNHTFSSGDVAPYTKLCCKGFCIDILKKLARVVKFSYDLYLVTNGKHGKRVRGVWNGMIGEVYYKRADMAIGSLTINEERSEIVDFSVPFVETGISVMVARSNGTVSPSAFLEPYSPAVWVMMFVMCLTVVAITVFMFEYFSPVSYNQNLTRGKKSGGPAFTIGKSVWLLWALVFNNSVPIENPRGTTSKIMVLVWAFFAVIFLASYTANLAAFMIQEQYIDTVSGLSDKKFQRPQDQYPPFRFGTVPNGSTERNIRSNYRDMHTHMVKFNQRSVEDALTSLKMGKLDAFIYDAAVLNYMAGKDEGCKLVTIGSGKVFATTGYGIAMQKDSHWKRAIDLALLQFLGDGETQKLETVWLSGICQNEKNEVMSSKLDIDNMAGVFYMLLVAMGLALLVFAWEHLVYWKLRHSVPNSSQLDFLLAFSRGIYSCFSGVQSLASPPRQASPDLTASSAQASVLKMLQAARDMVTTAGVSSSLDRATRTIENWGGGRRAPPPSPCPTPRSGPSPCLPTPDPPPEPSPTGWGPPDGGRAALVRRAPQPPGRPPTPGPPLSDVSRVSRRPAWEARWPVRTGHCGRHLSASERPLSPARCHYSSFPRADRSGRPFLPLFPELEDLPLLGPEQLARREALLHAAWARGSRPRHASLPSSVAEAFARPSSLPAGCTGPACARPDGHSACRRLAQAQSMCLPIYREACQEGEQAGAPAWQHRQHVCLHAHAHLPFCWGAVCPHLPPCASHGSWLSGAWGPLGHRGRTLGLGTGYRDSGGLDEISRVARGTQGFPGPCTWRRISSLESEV
Procedure: Assays were conducted as described by Moskal et al., “GLYX-13: a monoclonal antibody-derived peptide that acts as an N-methyl-D-aspartate receptor modulator,” Neuropharmacology, 49, 1077-87, 2005. These studies were designed to determine if the test compounds act to facilitate NMDAR activation in NMDAR2A, NMDAR2B, NMDAR2C or NMDAR2D expressing HEK cell membranes as measured by increases in [^3H]MK-801 binding.
In the assay, 300 μg of NMDAR expressing HEK cell membrane extract protein was preincubated for 15 minutes at 25° C. in the presence of saturating concentrations of glutamate (50 μM) and varying concentrations of test compound (1×10^−15 M-1×10^−7 M), or 1 mM glycine. Following the addition of 0.3 μCi of [^3H]MK-801 (22.5 Ci/mmol), reactions were again incubated for 15 minutes at 25° C. (nonequilibrium conditions). Bound and free [^3H]MK-801 were separated via rapid filtration using a Brandel apparatus.
In analyzing the data, the DPM (disintegrations per minute) of [^3H]MK-801 remaining on the filter were measured for each concentration of test compound or for 1 mM glycine. The DPM values for each concentration of a ligand (N=2) were averaged. The baseline value was determined from the best fit curve of the DPM values modeled using the GraphPad program and the log(agonist) vs. response(three parameters) algorithm was then subtracted from all points in the dataset. The % maximal [^3H]MK-801 binding was then calculated relative to that of 1 mM glycine: all baseline subtracted DPM values were divided by the average value for 1 mM glycine. The EC50 and % maximal activity were then obtained from the best fit curve of the % maximal [^3H]MK-801 binding data modelled using the GraphPad program and the log(agonist) vs. response(three parameters) algorithm. […]

- EC50 ([1]; read-out: NMDAR2B B: log EC50 (converted)): < 1 nM
- Emax ([1]; 0.25 h, read-out: NMDAR2B A: % maximal [3H]MK-801 binding relative to 1 mM glycine): < 100%
- NMDAR2C A: % maximal [3H]MK-801 binding relative to 1 mM glycine [2]: − (−=0)
SMILES: COc1ccc(CN2C[C@@]3(CCNC(=O)C3)C2=O)cc1 [Compound AA-2, 2-(4-methoxybenzyl)-2,7-diazaspiro[3.5]nonane-1,6-dione]
- % analgesia (Sprague Dawley rats; 0.1 mg/kg PO, 1 wk): 2.3%
- % analgesia (Sprague Dawley rats; 0.1 mg/kg PO, 1 h): 22.3%
- % analgesia (Sprague Dawley rats; 0.1 mg/kg PO, 24 h): 1.6%
- % analgesia (Sprague Dawley rats; 1 mg/kg PO, 1 wk): 11.0%
- % analgesia (Sprague Dawley rats; 1 mg/kg PO, 1 h): 19.2%
- % analgesia (Sprague Dawley rats; 1 mg/kg PO, 24 h): 10.7%
- % analgesia (Sprague Dawley rats; 10 mg/kg PO, 1 wk): 41.4%
- % analgesia (Sprague Dawley rats; 10 mg/kg PO, 1 h): 38.1%
- % analgesia (Sprague Dawley rats; 10 mg/kg PO, 24 h): 24.3%
- % analgesia (Sprague Dawley rats; 30 mg/kg PO, 1 wk): 34.5%
- % analgesia (Sprague Dawley rats; 30 mg/kg PO, 1 h): 24.4%
- % analgesia (Sprague Dawley rats; 30 mg/kg PO, 24 h): 8.7%
